Literature values as cited in US20240398845A1, “USE OF SGLT-2 INHIBITORS FOR THE PREVENTION AND/OR TREATMENT OF CARDIAC DISEASES IN NON-HUMAN MAMMALS EXCLUDING FELINES, IN PARTICULAR CANINES” (BOEHRINGER INGELHEIM VETMEDICA GMBH, priority 2021, published 2024).

What was measured:
[1] = test system: Stage B2 dogs (MMVD); conditions: cited from earlier work
[2] = test system: canine atrial fibrillation model; conditions: cited from earlier work
[3] = test system: mitral regurgitation-induced myocardial dysfunction; conditions: cited from earlier work
[4] = test system: adults with heart failure and reduced ejection fraction; conditions: with and without diabetes; cited from earlier work
[5] = test system: non-diabetic heart failure; conditions: cited from earlier work

Structure (SMILES): COc1ccc(-c2nc3ccc(C4=NNC(=O)CC4C)cc3[nH]2)cc1 (centres unmarked) [pimobendan]
- preclinical period [1]: prolongation of the preclinical period

Structure (SMILES): Cc1ccc([C@@H]2O[C@H](CO)[C@@H](O)[C@H](O)[C@H]2O)cc1Cc1ccc(-c2ccc(F)cc2)s1 [canagliflozin, Canagliflozin]
- atrial remodeling [2]: suppresses atrial remodeling

Structure (SMILES): CCOc1ccc(Cc2cc([C@@H]3O[C@H](CO)[C@@H](O)[C@H](O)[C@H]3O)ccc2Cl)cc1 [dapagliflozin, Dapagliflozin]
- cardiac hemodynamics and arrhythmogenesis [3]: improves cardiac hemodynamics and mitigates arrhythmogenesis

Structure (SMILES): OC[C@H]1O[C@@H](c2ccc(Cl)c(Cc3ccc(O[C@H]4CCOC4)cc3)c2)[C@H](O)[C@@H](O)[C@@H]1O [empagliflozin, Empagliflozin]
- risk for the composite endpoint of cardiovascular death or hospitalization due to heart failure [4]: reduced the risk
- adverse left ventricular remodeling [5]: ameliorates adverse left ventricular remodeling
